The values that follow come from the OPERA property sets (Mansouri et al. 2018).

Usually logP stands for the decadic logarithm of the partition coefficient of the neutral form, usually between octanol and water.

On to `Cn1cnc([N+](=O)[O-])c1Br`, for which the logP was found to be 0.36.
For `Cc1[nH]cnc1[N+](=O)[O-]` the value was 0.23.
To `Cn1cc([N+](=O)[O-])nc1Br` belongs 0.33; to `Cn1cncc1[N+](=O)[O-]`, 0.13.
For the compound `Cn1cnc([N+](=O)[O-])c1`, the logP was -0.44.
To `Cn1ccnc1[N+](=O)[O-]` belongs -0.17; to `Cc1nc([N+](=O)[O-])c(Br)[nH]1`, 1.14; to `Cn1c([N+](=O)[O-])cnc1Cl`, 0.62.
`Cc1[nH]c(Br)nc1[N+](=O)[O-]` had a logP of 0.86.
Turning to `Cn1cc([N+](=O)[O-])nc1Cl`, the logP is 0.19.
The compound `Cc1nc(Br)n(C)c1[N+](=O)[O-]` returned a logP of 0.82.
`Cn1cnc([N+](=O)[O-])c1N`: the log partition coefficient (logP) is -1.
For `Cn1cnc(Cl)c1[N+](=O)[O-]` the value was 0.69; for `Cn1cnc(Br)c1[N+](=O)[O-]`, 0.77; for `COc1nc(C)[nH]c1[N+](=O)[O-]`, 0.21.
To `COc1nc[nH]c1[N+](=O)[O-]` belongs 0.13; to `O=[N+]([O-])c1nc[nH]c1Br`, 0.85; to `O=[N+]([O-])c1nc[nH]c1Cl`, 0.78.
Turning to `COc1c([N+](=O)[O-])ncn1C`, the logP came out at 0.19.
